Laboratory results: US5681823A, “P^1, P^4 -dithio-P^2 -P^3 -monochloromethylene 5', 5'"-diadenosine P^1, P^4 -tetraphosphate as antithrombotic agent” (PRP Inc., priority 1996, dated 1997)
Entries after “also recorded” stand apart in the source; their conditions may differ. Where two headings read alike, the source gives them in different places.

Experiments:
[1] = tested on: Platelet Factor 3 (PF3); assay: Platelet factor 3 (PF3) activation, Stypven clotting time; format: cell-based, human; conditions: for Clotting Time (Stypven), ADP-stimulated PF3 activity / Net Change of clotting time / activity at 10 µM: 10 μM agent, 10 μM ADP; for Clotting Time (Stypven), ADP-stimulated PF3 activity: mean of two, baseline 45.8, saline control 38.9; for Net Change of clotting time: saline control -6.9; for activity at 10 µM: Homo sapiens, Platelet, 5 min, saline control 100, read-out: % Change of clotting time
Protocol: PF3 activity of the platelets is enhanced by ADP stimulation and measured by the Stypven clotting time (P. Zamecnik et al., PNAS (USA) 89:2370-2373 (1992)). The data represent a mean of two experiments. Fresh normal human platelet-rich plasma (3×10^8 platelets per ml) was preincubated in the presence or absence of the agents (10 μM) at 37° C. for 5 min and then tested for PF3 activity of the platelets that was stimulated by 10 μM ADP.

[2] = tested on: ADP-induced platelet aggregation; assay: ADP-induced platelet aggregation in platelet-rich plasma (turbidimetric method of Born, aggregometer); format: cell-based, human; conditions: for IC50: ADP-induced aggregation, PRP, mean of three (*) or two determinations
Protocol: (§1) Unless otherwise provided below, the experimental procedures were performed according to the procedures provided in U.S. Pat. No. 5,049.550 (Zamecnik '550), the entire contents of which are incorporated herein by reference. Some alternative procedures (e.g., release reaction, PF3 assays) and a number of additional studies also are provided (e.g., cytoplasmic calcium mobilization, fibrinogen binding site, agonists other than ADP, platelet cAMP and distribution of CHCl-AP4 A into blood components). Blood was collected in a 0.1 volume of 3.8% sodium citrate from healthy human volunteers who had abstained from antiplatelet agents for at least 10 days. Platelet rich plasma (PRP) was separated by a gradual centrifugation and adjusted to 3.3×10^8 platelets per ml plasma. PRP has been utilized in the Examples unless otherwise stated.
An initial screening was performed for inhibitory effects of several agents (including, e.g., thio-CHCl-AP4 A and CHCl-AP4 A as reference agent)) on platelet aggregation induced by ADP. Platelet aggregation was measured with platelet-rich plasma (PKP) by the turbidimetric method of Born (J. Physiol. 162:67, 1962) in an aggregometer (Chrono-log, Model 530 VS). Platelet aggregation induced by 5 μM ADP in the absence or presence of 5 μM agents was examined. […] The IC50 value of the CHCl-AP4 A (reference agent) was consistent with the value reported previously (P. Zamecnik et al., Proc. Nat'l. Acad. Sci. USA 89:2370-2373 (1992)).

[3] = tested on: ADP-induced platelet aggregation; assay: Inhibition kinetic study, ADP-induced platelet aggregation; format: cell-based, human
Protocol: as §1
An initial screening was performed for inhibitory effects of several agents (including, e.g., thio-CHCl-AP4 A and CHCl-AP4 A as reference agent)) on platelet aggregation induced by ADP. Platelet aggregation was measured with platelet-rich plasma (PKP) by the turbidimetric method of Born (J. Physiol. 162:67, 1962) in an aggregometer (Chrono-log, Model 530 VS). Platelet aggregation induced by 5 μM ADP in the absence or presence of 5 μM agents was examined. […]

[4] = tested on: Cytoplasmic Calcium Ion (Ca^++) Mobilization in platelets; assay: Cytoplasmic calcium ion mobilization in platelets (Indo-1, flow cytometer); format: cell-based, human; conditions: 6.7 μM ADP
Protocol: as §1
An increment of cytoplasmic Ca^++ in the platelets represents an activated state. Indo-1 acetomethyl ester (Indo-1) commonly has been utilized as the reagent to detect intracellular free Ca^++. Indo-1 reacts with Ca^++ and produces fluorescence which can be monitored in a dual wavelength (408/485) flow cytometer (Coulter EPIC Systems). Platelets were incubated with Indo-1 at 37° C. for 45 min. Excess Indo-1 in the medium was removed by gel-filtration method. Indo-1-loaded platelets were then activated by 6.7 μM ADP in the absence or presence of thio-CHCl-AP4 A (3.3 μM) or CHCl-AP4 A (6.7 μM). Fluorescence intensity of the platelets was monitored and plotted against platelet number. The histograms generated from the plots were analyzed. Unstimulated platelets registered fluorescence intensity (FI) between 42 and 250 with a peak at 133 (base line control).

[5] = Molecular stability in whole blood (HPLC of blood extracts); format: in vitro ADME, human; conditions: for Main Peak / Total / X2 (second peak) / X1 (second peak): 250 μM agent, mean of two
Protocol: To test the molecular stability of the agents, blood was incubated with each agent at […] for 4 hours. Samplings at the indicated incubation times were extracted and CHC -AP4 A or thio-CHCl-AP4 A were assayed in an HPLC (Waters 600E pump and controller) with quartenary amine anion exchange column (Whatman Partisil 10) and analysed (Beckman System Gold). The retention times for CHCl-AP4 A and thio-CHCl-AP4 A were 3.39 and 5.95, respectively. Peak areas were integrated and used to construct a standard curve for a concentration range (1, 2, 4, 6, 8 and 10 μM). Both CHCl-AP4 A and thio-CHCl-AP4 A were pure, as observed by a single peak on HPLC, and by a linear relationship between the concentration of the agent and HPLC peak areas. Normal human blood anticoagulated with 0.38% sodium citrate was incubated in the presence of250 μM CHCl-AP4 A or thio-CHCl-AP4 A at […] for 4 hours. Blood samples were extracted with 3% perchloric acid and neutralized with K2 CO3. The extracts were kept at -80° C. until an assay using an HPLC. The values in Table 9 represent a mean of two experiments and are expressed in nmol/ml blood. […] An estimated quantity of CHCl-AP4 A major peak indicated a slow degradation showing a reduction of 30% after 4 hours incubation. At least 80% of degradation product, possibly chloromethylene monoadenosine triphosphate (AppCp) is associated with the second peak (X1). […] The second peak of the blood extract with thio-CHCl-AP4 A may be an isomer (X2), e.g., monothio compound (Aps pCppA or AppCpps A). It was not detected by HPLC of the pure compound, but registered a small portion (<10%) in the blood extraction at time 0 and about 20% of the major peak thereafter.

[6] = tested on: ADP-induced platelet aggregation; thrombus formation; conditions: in words; cited from earlier work
[7] = tested on: Leukocytes; assay: Distribution of ^125 I-labeled CHCl-AP4 A into blood cell fractions: leukocytes; format: binding, human
Protocol: There are, however, a variety of purinoceptors on other cell types. AP4 A analogues may bind not only to platelets but also to the erythrocytes and leukocytes when whole blood is treated with the agents. […] Platelets were separated by a gradual centrifugation, the packed red cells with buffy coats (leukocytes) were mixed, and fractionated by means of histopaque gradient separation (A. Boyum, Scand J. Clin. Lab. Invest. 21(suppl 97):77 (1968)). The cell fractions were washed twice and final suspensions were counted for cell number and the radioactivity. Percent distribution was calculated based on the CBC data of whole blood. Binding sites are expressed in the values per cells.

Nc1ncnc2c1ncn2[C@@H]1O[C@H](COP(O)(=S)OP(=O)(O)C(Cl)P(=O)(O)OP(O)(=S)OC[C@H]2O[C@@H](n3cnc4c(N)ncnc43)[C@H](O)[C@@H]2O)[C@@H](O)[C@H]1O (stereo partly drawn) [Thio-CHCl-AP4 A, P^1, P^4 -dithio -P^2 -P^3 monochloromethylene 5', 5'" diadenosine P^1, P^4 -tetraphosphate]
Clotting Time (Stypven), ADP-stimulated PF3 activity [1]: 44.5 s
Net Change of clotting time [1]: -1.3
activity at 10 µM [1]: 18.8%
inhibitory effect on ADP-stimulated PF3 activity ([1]; compared to CHCl-AP4 A, in words): significantly greater than that of the non-thio reference agent
IC50 [2]: 0.81 µM
in vitro platelet aggregation inhibitory activity relative to AP4 A and analogs ([2]; compared to AP4 A, known analogs, non-thio counterpart, in words, listed as Aps pCHClpps A): nearly an order of magnitude greater than the inhibitory activity of naturally-occurring AP4 A; also recorded: significantly greater than the activities of known AP4 A analogs; also recorded: significantly greater platelet aggregation inhibitory activity than that of its corresponding non-thio counterpart
nature of inhibition [3]: competitive inhibition
Ki ([3]; ADP-induced aggregation, read-out: inhibition constant (Ki)): 0.33 µM
effect on ADP-induced Ca^++ mobilization ([4]; 3.3 μM thio-CHCl-AP4 A): blocked completely
Main Peak ([5]; 0 min): 157.7 nmol/ml blood
Total ([5]; 0 min): 172.0 nmol/ml blood
X2 (second peak) ([5]; 0 min): 14.3 nmol/ml blood
Main Peak ([5]; 60 min): 172.3 nmol/ml blood
Total ([5]; 60 min): 205.9 nmol/ml blood
X2 (second peak) ([5]; 60 min): 33.6 nmol/ml blood
Main Peak ([5]; 120 min): 180.0 nmol/ml blood
Total ([5]; 120 min): 211.4 nmol/ml blood
X2 (second peak) ([5]; 120 min): 31.4 nmol/ml blood
Main Peak ([5]; 240 min): 173.7 nmol/ml blood
Total ([5]; 240 min): 202.0 nmol/ml blood
X2 (second peak) ([5]; 240 min): 38.3 nmol/ml blood
second peak (X2), % of the major peak ([5]; after time 0): about 20 % of the major peak
stability in blood ([5]; at least 4 hours at 37° C., in words): very stable in blood for at least 4 hours at 37 °C
recovery at 2 h, 250 µM ([5]; human, blood, 120 minutes, read-out: Total extraction efficiency): 85%
recovery at 1 h, 250 µM ([5]; human, blood, samples after 60 minutes, read-out: Extraction efficiency): 81 to 85%
recovery at 0 h, 250 µM ([5]; human, blood, time 0, read-out: Extraction efficiency): 69%
second peak (X2) portion in the blood extraction ([5]; time 0): < 10%

Nc1ncnc2c1ncn2[C@@H]1O[C@H](COP(=O)(O)OP(=O)(O)C(Cl)P(=O)(O)OP(=O)(O)OC[C@H]2O[C@@H](n3cnc4c(N)ncnc43)[C@H](O)[C@@H]2O)[C@@H](O)[C@H]1O (stereo partly drawn) [CHCl-AP4 A]
Clotting Time (Stypven), ADP-stimulated PF3 activity [1]: 43.1 s
Net Change of clotting time [1]: -2.7
activity at 10 µM [1]: 39.1%
IC50 [2]: 3.28 µM
effect on thrombus formation on administration to a mammal [6]: inhibit thrombus formation
Distribution (%) ([7]; 23 μM, 22° C., 30 minutes, mean of two): 1.94%
Binding Sites ([7]; gross estimation per cell): 7.39 × 10^7 per cells
binding sites per surface area, relative value ([7]; relative, leukocytes): 1000
effect on ADP-induced Ca^++ mobilization ([4]; 6.7 μM CHCl-AP4 A): blocked completely
Main Peak ([5]; 0 min): 249.2 nmol/ml blood
Total ([5]; 0 min): 249.2 nmol/ml blood
X1 (second peak) ([5]; 0 min): trace
Main Peak ([5]; 60 min): 249.0 nmol/ml blood
Total ([5]; 60 min): 274.8 nmol/ml blood
X1 (second peak) ([5]; 60 min): 25.8 nmol/ml blood
Main Peak ([5]; 120 min): 222.0 nmol/ml blood
Total ([5]; 120 min): 258.6 nmol/ml blood
X1 (second peak) ([5]; 120 min): 36.6 nmol/ml blood
Main Peak ([5]; 240 min): 173.2 nmol/ml blood
Total ([5]; 240 min): 236.3 nmol/ml blood
X1 (second peak) ([5]; 240 min): 63.3 nmol/ml blood
recovery at 1 h, 250 µM ([5]; human, blood, 60 minutes, read-out: Total extraction efficiency): 110%
metabolised at 4 h, 250 µM ([5]; human, blood, after 4 hours incubation, read-out: reduction of major peak (slow degradation)): 30%
degradation product associated with the second peak (X1) ([5]; whole blood): At least 80%
